According to patent US7189746B2, “Methods for promoting wound healing” (GliaMed, Inc., priority 2002, dated 2007):
Entries after “also recorded” stand apart in the source; their conditions may differ.

Legend:
[1] = test system: facial nerve; assay: Whisker movement after unilateral facial nerve compression; assay type: in vivo; details: rats, versus control
[2] = test system: nerve fibers of injured skin; assay: Reinnervation and remyelination of healing skin (MBP and neuron-specific β-tubulin staining); assay type: in vivo, mouse; details: 8 days of treatment after biopsy
From the text: FIG. 6 illustrates that GM-284 induces rapid reinnervation of injured skin. (A) The inventor examined innervation of surgically damaged skin (biopsy) following 8 days of treatment with either GM-284 or vehicle. The skin sections were stained with an antibody that recognizes myelin basic protein (MBP). […] In contrast, healing skin which had been treated with vehicle alone still had no myelinated fibers, nor did the Langerhans cells appear to have any organization relative to the epidermis (right panel). (B) Unmyelinated fibers also innervate the skin, where the fibers extend into the epidermis. […] No such fibers were found in the vehicle-treated controls.
As shown above, GM-284 induces rapid healing of wounds; it does so, in part, by influencing the proliferation of cells within the dermis and epidermis. In addition, this compound has profound effects on the regeneration of peripheral nerves. The inventor has previously shown that, following crushing-nerve injury, GM-284 enhances nerve regeneration, acting on both the axon and the Schwann cell (data not shown). To investigate whether GM-284 also enhances sensory-nerve regeneration into skin following wounding, the inventor examined innervation of skin biopsies after 8 days of treatment with either GM-284 or vehicle. […]

[3] = test system: epidermis; assay: Epidermal thickness after full-thickness skin biopsy and topical treatment; assay type: in vivo, mice; details: topical daily for 8 days in DMSO-based vehicle, rebiopsy, H&E
Method: FIG. 4 illustrates that topical treatment with GM-284 increases epidermal thickness in vivo. Eight days after full-thickness skin biopsies and daily treatment with vehicle, FK506, or GM-284, the original biopsy sites were rebiopsied and stained with hemotoxylin and eosin.
To examine this possibility, 5-mm, full-skin thickness biopsies were taken from the hindquarters of both male and female ICR retired breeders. The wounds were treated daily, for 8 days, with topical administration of either the DMSO-based vehicle, or FK506 or GM-284 in the vehicle. Thereafter, the original biopsy site was rebiopsied. […] In contrast, the epidermis of the GM-284-treated animals was much thicker, and appeared to be much more cellular, than the epidermis of animals under the other two conditions (FIG. 4, panel c).

[4] = test system: 5-mm skin biopsies; assay: Closure of 5-mm skin biopsy wounds under daily topical treatment; assay type: in vivo, mice
Method: The foregoing results also raised the possibility that GM-284 might show similar effects if administered topically, directly to the surgical site. To investigate this possibility, 10 retired breeders—5 male mice and 5 female mice—were prepared for surgery, and were subjected to 5-mm skin biopsies using a disposable biopsy punch. After achieving hemostasis, the wounds were treated immediately with topical application of either GM-284 or vehicle, or received no treatment at all. The treatment was repeated daily.
During the experimental period, the wounds were photographed daily, and the photographs were scanned for […]. The open area of each wound was quantified using an image-analysis program, NIH Image.

[5] = test system: surgical wounds; assay: Healing of surgical wounds under daily gavage (systemic treatment); assay type: in vivo, mice
From the text: During these studies, the inventor serendipitously observed that the surgical wounds of animals treated systemically with GM-284 appeared dramatically different from those of either vehicle- or FK506-treated mice. […] Given the biochemical properties of GM-284, and the clinical uses of FK506 as a topical medication, the inventor investigated the ability of GM-284 to act as a healing accelerant when applied topically to full-thickness skin biopsies in mice.
These studies required surgical exposure of the right lower quadrant of all study animals. Following exposure of the sciatic nerve from the sciatic notch to the knee, and manipulation of the nerve, the muscle and overlaying skin were closed with suture material. Each animal was subsequently treated with a daily gavage of either GM-284 (5 mg/kg), FK506 (5 mg/kg), or methylcellulose vehicle alone.

[6] = test system: neuregulin-α; assay: Neuregulin-α expression in keratinocytes of unwounded skin in situ; assay type: in vivo
From the text: FIG. 8 illustrates that GM-284 alters neuregulin gene expression. […] As expected, unwounded, vehicle-treated keratinocytes strongly express neuregulin-α (top panel).
As expected, unwounded, vehicle-treated keratinocytes strongly expressed neuregulin-α (FIG. 8, top panel).

[7] = test system: epidermis of intact skin; assay: Topical treatment of intact shaved skin, with recovery period; assay type: in vivo
From the text: Either GM-284 or vehicle was applied to the dorsal skin on both sides of the animals, daily for 2 weeks. At that time, a 5-mm biopsy was taken from only one side, and all treatment was withheld. After an additional 2-week recovery period, a 5-mm biopsy was taken from the contralateral, intact side. […] 20×magnification
In order to test these effects, the inventor shaved the dorsal fur from over the hindquarters, bilaterally, and tattooed ˜5-mm circles on the skin. Either GM-284 or vehicle was applied daily, to both sides of the animals, for 2 weeks. After that time, a 5-mm biopsy was taken from only one side of each animal, and all treatment was withheld. After an additional 2-week “recovery period”, a 5-mm biopsy was taken from the intact side of each animal.

[8] = target: T1, recombinant FKBP52 (Homo sapiens, UniProt Q02790); assay: Binding affinity for recombinant FKBP52 by solution-phase tryptophan fluorescence (QTFS); details: read-out: disassociation constant (kd), binding affinity for recombinant FKBP52
T1 sequence (Q02790 1-459): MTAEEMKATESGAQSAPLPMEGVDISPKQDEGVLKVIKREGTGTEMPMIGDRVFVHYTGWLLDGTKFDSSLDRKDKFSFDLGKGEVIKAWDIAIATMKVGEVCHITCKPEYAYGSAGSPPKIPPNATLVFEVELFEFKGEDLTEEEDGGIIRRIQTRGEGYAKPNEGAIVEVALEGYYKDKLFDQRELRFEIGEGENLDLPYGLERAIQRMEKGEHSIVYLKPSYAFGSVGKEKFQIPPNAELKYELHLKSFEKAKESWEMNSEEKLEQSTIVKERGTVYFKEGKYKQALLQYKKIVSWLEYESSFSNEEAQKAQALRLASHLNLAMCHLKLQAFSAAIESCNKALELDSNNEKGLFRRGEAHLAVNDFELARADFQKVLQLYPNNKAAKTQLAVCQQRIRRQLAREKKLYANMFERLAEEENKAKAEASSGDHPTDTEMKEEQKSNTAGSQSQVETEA
From the text: Accordingly, in one embodiment of the present invention, the immunophilin ligand is FK506 or an FK506 analogue or derivative. As used herein, an “FK506 derivative” is a chemical substance derived from FK506, either directly or by modification, truncation, or partial substitution. FK506 and its analogues and derivatives may be produced synthetically. The FK506 derivative for use in the present invention may be nonimmunosuppressive. In a preferred embodiment of the present invention, the nonimmunosuppressive FK506 derivative is GM-284. This novel compound is a small molecule that effects transcriptional change in Schwann cells, and promotes wound healing and regeneration of epithelial tissue and nervous tissue, as described below. […] The structure of GM-284 is depicted in FIG. 9.

[9] = test system: peripheral nerves; assay: Peripheral nerve regeneration after mechanical transection; assay type: in vivo; details: mechanical transection of peripheral nerves; earlier studies of the inventor
[10] = test system: human-foreskin keratinocytes; assay: Proliferation of cultured human-foreskin keratinocytes; assay type: cell-based
Method: Human keratinocytes were thawed, then either grown in the presence of increasing concentrations of GM-284, or grown in 5 μM FeSO4 as a positive control.
As detailed above, keratinocyte proliferation is influenced by a number of factors, including innervation (Hsieh and Lin, Modulation of keratinocyte proliferation by skin innervation. J. Invest. Dermatol., 113:579–86, 1999) and growth-factor treatment (Castagnino et al., Neu differentiation factor/heregulin induction by hepatocyte and keratinocyte growth factors. Oncogene, 19:640–48, 2000; and reviewed by Werner and Smola, Paracrine regulation of keratinocyte proliferation and differentiation. Trends Cell Biol., 11: 143–46, 2001). Thus, by culturing human-foreskin keratinocytes with increasing concentrations of GM-284, the inventor investigated the possibility that GM-284 was able to influence keratinocyte growth. […] This type of drug-dependent inhibition is consistent with the inventor's previous observation that a higher concentration of GM-284 blocks gene expression that is induced at a lower drug concentration (data not shown).

[11] = test system: hair follicles and sebaceous glands; assay: Histology of adenexal structures and sebaceous cell volume after skin biopsy and topical treatment; assay type: in vivo, mice; details: topical daily, 8 days
Method: (A) Eight days following full-thickness skin biopsies and daily treatment with either vehicle or a 1 μM solution of GM-284, the original biopsy sites were rebiopsied and stained with hemotoxylin and eosin. […] Micrographs from the two treatment groups were scanned, and the volume of sebaceous cells was measured in voxels (n=>300 cells per treatment group). The resulting data were binned by 3000-voxel increments.
Using the topical-application-following-skin-biopsy paradigm detailed above, the lateral aspects of the original lesions were rebiopsied 8 days after the original lesions. The tissues were immersion-fixed, dehydrated through step gradients of alcohols, stained with hemotoxylin and eosin, and mounted for microscopic analysis, all following standard protocols. It is known that skin wounds in rodents heal inwards, from the perimeter, converging at a central point (Cohen, Stress and wound healing. Acta Anat. (Basel), 103:134–41, 1979). Therefore, the lateral edges of the original lesions were selected for analysis because these areas of tissue had the greatest opportunity to regenerate under the experimental conditions.
The volumes of the cells of the sebaceous glands were determined by scanning micrographs taken from animals treated with either GM-284 or vehicle for 8 days, and measuring cell size with the NIH Image program. […] There was an absence of smaller sebaceous cells in the GM-284 treatment group, and an absence of larger cells in the vehicle-treated group. […] Thus, given the cellular expansion in all three of these dermal compartments, it is likely that GM-284 acts at the level of the common stem cell.

SMILES: CCC(C)(C)C(=O)C(=O)N1CCC[C@H]1c1nnc([C@@H]2CCCN2C(=O)C(=O)C(C)(C)CC)o1 [GM-284]
- restoration of whisker movement [1]: more rapidly restore whisker movement compared to control
- regeneration of myelinated (MBP-positive) fibers in injured skin (FIG. 6A) [2]: regained its pre-injury histology, with new, myelinated fibers running parallel to the epidermis
- regeneration of unmyelinated fibers into the epidermis (FIG. 6B) [2]: promotes regeneration of naked axons into the epidermis
- epidermal thickness versus vehicle (FIG. 4) [3]: marked increase in epidermal thickness; also recorded: much thicker
- granulation of wound edges ([4]; topical daily, D3 and D9): better granulated than the controls
- closure rate, open wound area by NIH Image (FIG. 2) ([4]; topical daily, day 5): large difference in the closure rates
- open wound size versus control groups, NIH Image (FIG. 2) ([4]; topical daily, day 9): approximately one-third the size of those of the control groups
- open wound size versus control groups, NIH Image (FIG. 2) ([4]; topical daily, day 9, listed as GM284): approximately as completely healed as that of the two control groups
- rate of wound closure, open wound area by NIH Image ([4]; topical daily, third treatment day): closed approximately twice as fast as the control groups
- wound closure versus control groups (FIG. 1) ([4]; topical, once daily, day 3): showed improvement by 3 days; also recorded: significantly more closed than the control groups
- wound closure (FIG. 1) ([4]; topical, once daily, day 9): virtually closed by the ninth day
- appearance and closure of surgical wounds ([5]; daily gavage 5 mg/kg, skin and muscle entered, blinded observer): less erythemia and more rapid closure
- rate of wound healing versus controls ([5]; mice treated systemically, controls vehicle or FK506): healed at approximately twice the rate as the controls
- healing of surgical wounds, only the skin entered ([5]; muscle and overlying fascia left intact): same improved healing characteristics
- keratinocyte neuregulin-α expression (FIG. 8) ([6]; 2 weeks of topical treatment, unwounded skin): completely downregulated neuregulin-α expression
- keratinocyte neuregulin-α expression after recovery ([6]; skin allowed to recover for 2 weeks, data not shown): keratinocyte expression of neuregulin-α was restored
- epidermal hypertrophy after recovery period (FIG. 7, lower) ([7]; 2 weeks treatment, then 2 weeks without treatment): completely reversed
- epidermal thickness of intact skin (FIG. 7, top) ([7]; topical daily for 2 weeks): resulted in epidermal hypertrophy
- Kd [8]: 139 nM
- axonal regeneration and myelination after nerve transection [9]: enhances axonal regeneration and induces hypermyelination
- increase in rate of keratinocyte proliferation ([10]; 1 μM, after 14 days of treatment): more than 150%
- proliferative index of keratinocytes (FIG. 3) ([10]; 1 μM, after first passage and reseeding): doubling of the proliferative index
- keratinocyte growth rate at 10 μM compared with 1 μM ([10]; 10 μM): completely ablated the pro-proliferative activity
- number of hair follicles or sebaceous glands ([11]; 1 μM solution): no net increase in the number of hair follicles
- hair follicle size and cellularity (FIG. 5A) ([11]; 1 μM solution, versus vehicle): large increase in the width and cellularity of the basal aspects of the hair follicles; also recorded: overall increase in hair-follicle size
- sebaceous gland size and cell number (FIG. 5A) ([11]; 1 μM solution, versus vehicle): much rounder, larger, and fuller than those of the controls; also recorded: increase in the size of sebaceous glands
- sebaceous cell volume, binned by 3000-voxel increments (FIG. 5B) ([11]; >300 cells per group, versus vehicle): marked shift to the right; also recorded: absence of cells smaller than 3000 voxels
